# Measurements taken from patent publication US9073821B2, “Hydroxamic acid derivative” (priority 2010, dated 2015).
# Biological target: Pseudomonas aeruginosa LpxC enzyme (Pseudomonas aeruginosa (strain ATCC 15692 / DSM 22644 / CIP 104116 / JCM 14847 / LMG 12228 / 1C / PRS 101 / PAO1), UniProt P47205)
# Test: biochemical
# Format: biochemical
# Conditions: class symbols A/B/C by IC50; Table 3; read-out: Enzyme inhibitory activity (inhibitory activity on Pseudomonas aeruginosa LpxC enzyme)
# Method: Test 1: Evaluation of the Inhibitory Activity on Pseudomonas aeruginosa LpxC Enzyme
# An inhibition curve was constructed for each test compound by performing the aforementioned reaction at varying concentrations of the test compound. From this inhibition curve, the concentration of the test compound at which the formation of the reaction product was suppressed by 50% was determined as the IC50 of the test compound, which was an index for the inhibitory activity on Pseudomonas aeruginosa LpxC enzyme.
row,IC50,SMILES
1,10 to 100 nM,"CNC(=O)[C@@](C)(C(=O)NO)N(C)C(=O)c1ccc(C#Cc2csc(C)n2)cc1 [Compound 586, (2S)-N-hydroxy-N′,2-dimethyl-2-[methyl({4-[(2-methyl-1,3-thiazol-4-yl)ethynyl]phenyl}carbonyl)amino]propanediamide]"
2,< 10 nM,"CN(C(=O)c1ccc(C#Cc2ccc(CN3CCCOCC3)cc2)cc1)C(C(=O)NO)C(=O)NCc1ccccn1 (stereo not shown) [Compound 520, N-hydroxy-2-{methyl[(4-{[4-(1,4-oxazepan-4-ylmethyl)phenyl]ethynyl}phenyl)carbonyl]amino}-N′-(pyridin-2-ylmethyl)propanediamide]"

# Same assay, conditions: inhibitory activity on Pseudomonas aeruginosa LpxC enzyme, class symbols A/B/C; read-out: Enzyme inhibitory activity
row,IC50,SMILES
1,> 100 nM,"CNC(=O)C(C(=O)NO)N(C)C(=O)c1ccc(-c2ccccc2)nc1 (stereo not shown) [Compound 190, N-hydroxy-N′-methyl-2-{methyl[(6-phenylpyridin-3-yl)carbonyl]amino}propanediamide]"
2,< 10 nM,"CNC(=O)C(C(=O)NO)N(C)C(=O)c1ccc(C#Cc2ccc(CN3CCN(C)CC3)cc2)cc1 (stereo not shown) [Compound 304, N-hydroxy-N′-methyl-2-(methyl {[4-({4-[(4-methylpiperazin-1-yl)methyl]phenyl}ethynyl)phenyl]carbonyl}amino)propanediamide]"
3,10 to 100 nM,"CNC(=O)C(C(=O)NO)N(CCOC)C(=O)c1ccc(-c2ccccc2)cc1 (stereo not shown) [Compound 166, 2-[(biphenyl-4-ylcarbonyl)(2-methoxyethyl)amino]-N-hydroxy-N′-methylpropanediamide]"
4,10 to 100 nM,"CNC(=O)C(C(=O)NO)N(C)C(=O)c1ccc(-c2ccsc2)cc1 (stereo not shown) [Compound 292, N-hydroxy-N′-methyl-2-(methyl {[4-(thiophen-3-yl)phenyl]carbonyl}amino)propanediamide]"
5,< 10 nM,"CNC(=O)C(C(=O)NO)N(C)C(=O)c1ccc(-c2ccc(NC)c(Cl)c2)cc1 (stereo not shown) [Compound 227, 2-[{[3′-chloro-4′-(methylamino)biphenyl-4-yl]carbonyl}(methyl)amino]-N-hydroxy-N′-methylpropanediamide]"
6,< 10 nM,"CNC(=O)C(C(=O)NO)N(C)C(=O)c1ccc(-c2ccc(/C=N/O)cc2)cc1 (stereo not shown) [Compound 195, N-hydroxy-2-[({4′-[(E)-(hydroxyimino)methyl]biphenyl-4-yl}carbonyl)(methyl)amino]-N′-methylpropanediamide]"
7,10 to 100 nM,"CNC(=O)C(C(=O)NO)N(C)C(=O)c1ccc(-c2ccc(C(C)O)cc2)cc1 (stereo not shown) [Compound 261, N-hydroxy-2-[{[4′-(1-hydroxyethyl)biphenyl-4-yl]carbonyl}(methyl)amino]-N′-methylpropanediamide]"
8,10 to 100 nM,"CNC(=O)C(C(=O)NO)N(C)C(=O)c1ccc(-c2ccc(OCCCN(C)Cc3ccccc3)cc2NC)cc1 (stereo not shown) [Compound 106, 2-[{[4′-{3-[benzyl(methyl)amino]propoxy}-2′-(methylamino)biphenyl-4-yl]carbonyl}(methyl)amino]-N-hydroxy-N′-methylpropanediamide]"
9,10 to 100 nM,"CNC(=O)C(C(=O)NO)N(C)C(=O)c1ccc(C#Cc2ccc(CNC3CCC3)cc2)cc1 (stereo not shown) [Compound 316, 2-[{[4-({4-[(cyclobutylamino)methyl]phenyl}ethynyl)phenyl]carbonyl}(methyl)amino]-N-hydroxy-N′-methylpropanediamide]"
10,10 to 100 nM,"CNC(=O)C(C(=O)NO)N(C)C(=O)c1ccc(-c2ccc(SC)nc2)cc1 (stereo not shown) [Compound 469, N-hydroxy-N′-methyl-2-[methyl({4-[6-(methylsulfanyl)pyridin-3-yl]phenyl}carbonyl)amino]propanediamide]"
11,10 to 100 nM,"CNC(=O)C(C(=O)NO)N(C)C(=O)c1ccc(N2CC(c3ccccc3)C2)cc1 (stereo not shown) [Compound 249, N-hydroxy-N′-methyl-2-{methyl[4-(3-phenylazetidin-1-yl)benzoyl]amino}propanediamide]"
12,< 10 nM,"CNC(=O)C(C(=O)NO)N(C)C(=O)c1ccc(C#CC#Cc2ccc(CNCC(C)(C)C)cc2)cc1 (stereo not shown) [Compound 493, 2-[({4-[4-(4-{[(2,2-dimethylpropyl)amino]methyl}phenyl)buta-1,3-diyn-1-yl]phenyl}carbonyl)(methyl)amino]-N-hydroxy-N′-methylpropanediamide]"
13,< 10 nM,"CNC(=O)C(C(=O)NO)N(C)C(=O)c1ccc(-c2ccc(C)cc2F)c(F)c1 (stereo not shown) [Compound 460, 2-{[(2,2′-difluoro-4′-methylbiphenyl-4-yl)carbonyl](methyl)amino}-N-hydroxy-N′-methylpropanediamide]"
14,10 to 100 nM,"CNC(=O)C(C(=O)NO)N(C)C(=O)c1ccc(C#Cc2csc(COC)c2)cc1 (stereo not shown) [Compound 436, N-hydroxy-2-[(4-{[5-(methoxymethyl)thiophen-3-yl]ethynyl}benzoyl)(methyl)amino]-N′-methylpropanediamide]"
15,10 to 100 nM,"CNC(=O)C(C(=O)NO)N(C)C(=O)c1ccc(N2Cc3ccccc3C2)cc1 (stereo not shown) [Compound 250, 2-{[4-(1,3-dihydro-2H-isoindol-2-yl)benzoyl](methyl)amino}-N-hydroxy-N′-methylpropanediamide]"
16,< 10 nM,"CNC(=O)C(C(=O)NO)N(C)C(=O)c1ccc(-c2ccc3c(c2)cc(C)n3C)cc1 (stereo not shown) [Compound 57, 2-{[4-(1,2-dimethyl-1H-indol-5-yl)benzoyl](methyl)amino}-N-hydroxy-N′-methylpropanediamide]"

row,IC50,SMILES
1,10 to 100 nM,"CNC(=O)C(C(=O)NO)N(C)C(=O)c1ccc(-c2ccc(N)cc2)cc1 (stereo not shown) [Compound 284, 2-{[(4′-aminobiphenyl-4-yl)carbonyl](methyl)amino}-N-hydroxy-N′-methylpropanediamide]"
2,< 10 nM,"CNC(=O)C(C(=O)NO)N(C)C(=O)c1ccc(-c2ccc(N3CC(OC)C3)cc2)cc1 (stereo not shown) [Compound 229, N-hydroxy-2-[{[4′-(3-methoxyazetidin-1-yl)biphenyl-4-yl]carbonyl}(methyl)amino]-N′-methylpropanediamide]"
3,< 10 nM,"CNC(=O)C(C(=O)NO)N(C)C(=O)c1ccc(C#Cc2ccc(NCCO)cc2)cc1 (stereo not shown) [Compound 183, N-hydroxy-2-{[4-({4-[(2-hydroxyethyl)amino]phenyl}ethynyl)benzoyl](methyl)amino}-N′-methylpropanediamide]"
4,10 to 100 nM,"CNC(=O)C(C(=O)NO)N(C)C(=O)c1ccc(-c2ccc(CN(C)OC)cc2)cc1 (stereo not shown) [Compound 259, N-hydroxy-2-{[(4′-{[methoxy(methyl)amino]methyl}biphenyl-4-yl)carbonyl](methyl)amino}-N′-methylpropanediamide]"
5,10 to 100 nM,"CNC(=O)C(C(=O)NO)N(OC)C(=O)c1ccc(-c2ccccc2)cc1 (stereo not shown) [Compound 17, 2-[(biphenyl-4-ylcarbonyl)(methoxy)amino]-N-hydroxy-N′-methylpropanediamide]"
6,> 100 nM,"CNC(=O)C(C(=O)NO)N(C)C(=O)c1ccc(-c2ccccc2)s1 (stereo not shown) [Compound 442, N-hydroxy-N′-methyl-2-{methyl[(5-phenylthiophen-2-yl)carbonyl]amino}propanediamide]"
7,< 10 nM,"Cn1nccc1CNC(=O)C(NC(=O)c1ccc(-c2ccc(OCCO)cc2)cc1)C(=O)NO (stereo not shown) [Compound 146, N-hydroxy-2-({[4′-(2-hydroxyethoxy)biphenyl-4-yl]carbonyl}amino)-N′-[(1-methyl-1H-pyrazol-5-yl)methyl]propanediamide]"
8,< 10 nM,"CNC(=O)C(C)(C(=O)NO)N(C)C(=O)c1ccc(-c2ccc(OCCCN3CCOCC3)cc2)cc1 (stereo not shown) [Compound 350, N-hydroxy-N′,2-dimethyl-2-[methyl({4′-[3-(morpholin-4-yl)propoxy]biphenyl-4-yl}carbonyl)amino]propanediamide]"
9,10 to 100 nM,"CNC(=O)C(C(=O)NO)N(C)C(=O)c1ccc(-c2ccc(C(=O)NC(C)(C)C)cc2)cc1 (stereo not shown) [Compound 248, N′-tert-butyl-N-[1-(hydroxyamino)-3-(methylamino)-1,3-dioxopropan-2-yl]-N-methylbiphenyl-4,4′-dicarboxamide]"
10,< 10 nM,"CNC(=O)C(C(=O)NO)N(C)C(=O)c1ccc(-c2ccc(SCCOC)cc2)cc1 (stereo not shown) [Compound 291, N-hydroxy-2-[({4′-[(2-methoxyethyl)sulfanyl]biphenyl-4-yl}carbonyl)(methyl)amino]-N′-methylpropanediamide]"
11,10 to 100 nM,"CNC(=O)C(C(=O)NO)N(C)C(=O)c1ccc(-c2ccc(OCCCN3CC=CCC3)cc2)cc1 (stereo not shown) [Compound 263, 2-[({4′-[3-(3,6-dihydropyridin-1(2H)-yl)propoxy]biphenyl-4-yl}carbonyl)(methyl)amino]-N-hydroxy-N′-methylpropanediamide]"
12,< 10 nM,"CNC(=O)C(C(=O)NO)N(C)C(=O)c1ccc(C#Cc2ccc(CN3CCC(O)CC3)cc2)cc1 (stereo not shown) [Compound 334, N-hydroxy-2-[{[4-({4-[(4-hydroxypiperidin-1-yl)methyl]phenyl}ethynyl)phenyl]carbonyl}(methyl)amino]-N′-methylpropanediamide]"
13,10 to 100 nM,"O=C(NC(C(=O)NO)C(=O)NCCc1ccccc1)c1ccc(-c2ccc(OCCO)cc2)cc1 (stereo not shown) [Compound 125, N-hydroxy-2-({[4′-(2-hydroxyethoxy)biphenyl-4-yl]carbonyl}amino)-N′-(2-phenylethyl)propanediamide]"
14,> 100 nM,"CNC(=O)C(C(=O)NO)N(C)C(=O)c1ccc(-c2ccc(CCCO)cc2)cc1O (stereo not shown) [Compound 185, N-hydroxy-2-[{[3-hydroxy-4′-(3-hydroxypropyl)biphenyl-4-yl]carbonyl}(methyl)amino]-N′-methylpropanediamide]"
15,< 10 nM,"CNC(=O)C(C(=O)NO)N(C)C(=O)c1ccc(-c2ccc3occc3c2)cc1 (stereo not shown) [Compound 184, 2-{[4-(1-benzofuran-5-yl)benzoyl](methyl)amino}-N-hydroxy-N′-methylpropanediamide]"

row,SMILES,IC50
1,"CNC(=O)C(C(=O)NO)N(C)C(=O)c1ccc(-c2ccc(OCCC(O)CO)cc2)cc1 (stereo not shown) [Compound 181, 2-[{[4′-(3,4-dihydroxybutoxy)biphenyl-4-yl]carbonyl}(methyl)amino]-N-hydroxy-N′-methylpropanediamide]",< 10 nM
